Tests used:
[1] = system: P388 Mouse leukemia cells; test: Carcinolytic effect: inhibition of ^3 H-thymidine intake in P388 leukemia cells; format: cell-based; conditions: 2 hours then 1 hour with ^3 H-thymidine, vs. solvent control; for Percent inhibition against ^3 H-thymidine intake: 50 μM, 37° C
Experimental: P388 Mouse leukemia cells which were subjected to passage transplantation in CDF1 mice were suspended in RPMI1640 culture fluid containing 20 mM HEPES to a cell density of 5×10^5 cells/ml, and 1 ml each of aliquots were apportioned into test tubes. Each of the test samples was added to the suspension to a final concentration of 50 μM, and each preparation was incubated at 37° C with shaking (100 shuttles/min.). Two hours thereafter, ^3 H-thymidine was added to a final concentration of 0.25 μCi/ml, and the incubation was further carried out for 1 hour. Then the radioactivity taken in the cells was measured by a conventional method.

male ICR mice = test: Toxicity: single administration, life span observed for 3 weeks; format: in vivo
Experimental: Separately, 500 mg/kg of the above test compound was administered intraperitoneally to a group of eight male ICR mice, and their life spans were similarly observed for 3 weeks.

| SMILES | Percent inhibition against ^3 H-thymidine intake [1] [%] | mortality, intraperitoneal (male ICR mice; 500 mg/kg intraperitoneal, eight male ICR mice) | mortality, oral (male ICR mice; 2,000 mg/kg oral once, 0.5% CMC, four male ICR mice) | inhibition at 50 µM ([1]; Mus musculus, P388, 37° C, read-out: Percent inhibition against ^3 H-thymidine intake) [%] |
| --- | --- | --- | --- | --- |
| C[C@H](CCC(=O)O)[C@H]1CC[C@H]2[C@@H]3[C@H](O)C[C@@H]4C[C@H](OC(=O)c5ccc(CN(CCCl)CCCl)cc5)CC[C@]4(C)[C@H]3C[C@H](O)[C@]12C [Compound No. 31, 3-O-[p-(N,N-bis(2-chloroethyl)aminomethyl)benzoyl] cholic acid] | 94 | – | – | – |
| COc1ccc(COC(=O)CC[C@@H](C)[C@H]2CC[C@H]3[C@@H]4[C@H](O)C[C@@H]5C[C@H](OC(=O)c6ccc(OC(=O)N(CCCl)CCCl)cc6)CC[C@]5(C)[C@H]4C[C@H](O)[C@]23C)cc1 [Compound No. 52, p-Methoxybenzyl 3-O-[p-(N,N-bis(2-chloroethyl)aminocarbonyloxy)benzoyl] cholate] | 88 | – | – | – |
| C[C@H](CCC(=O)O)[C@H]1CC[C@H]2[C@@H]3[C@H](O)C[C@@H]4C[C@H](OC(=O)Cc5ccc(N(CCCl)CCCl)cc5)CC[C@]4(C)[C@H]3C[C@H](O)[C@]12C [Compound No. 2, 3-O-[p-(N,N-bis(2-chloroethyl)amino)phenylacetyl] cholic acid] | 90 | – | – | – |
| C[C@H](CCC(=O)O)[C@H]1CC[C@H]2[C@@H]3[C@H](O)C[C@@H]4C[C@H](OC(=O)CN(CCCl)CCCl)CC[C@]4(C)[C@H]3C[C@H](O)[C@]12C [Compound No. 38, 3-O-[N,N-bis(2-chloroethyl)aminoacetyl] cholic acid] | 83 | No mortality case was observed | No mortality case was observed | – |
| C[C@H](CCC(=O)O)[C@H]1CC[C@H]2[C@@H]3[C@H](O)C[C@@H]4C[C@H](O)CC[C@]4(C)[C@H]3C[C@H](O)[C@]12C [Cholic acid, reference compound] | – | – | – | 2 |

Reference: patent publication US4810422A, “Bile acid derivatives, their salts and production thereof” (priority 1986, dated 1989)
